According to patent US20240360178A1, “MACROCYCLIC IMMUNOMODULATORS” (Bristol-Myers Squibb Company, priority 2021, published 2024):
Positions of bridges follow the written chain, without caps; N, C: chain ends. Non-standard residues stand in square brackets, D forms with d. Residues, ends and D or L forms follow the SMILES beside them. Bip = N[C@@H](Cc1ccc(-c2ccccc2)cc1)C(=O)O; NMeA = CN[C@@H](C)C(=O)O; Nle = CCCC[C@H](N)C(=O)O; Dab = NCC[C@H](N)C(=O)O; Sar = CNCC(=O)O

These compounds were tested against T1, human PD-1 (Jurkat-PD-1 cells) / PE-labeled human PD-L1-Ig (Homo sapiens, UniProt Q15116) (assay: Jurkat-PD-1 Cell Binding High-Content Screening Assay (CBA); Jurkat hPD1-PDL1 assay). Conditions: Jurkat cell line over-expressing human PD-1; PE-labeled PD-L1-Ig 20 nM final; compound incubated 2 hours at 37° C.; read-out: Jurkat HPD1-PDL1 IC50.
T1 construct: expressed in transfected cells; host or cells: Jurkat cell line over-expressing human PD-1
Procedure, shortened: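 Jurkat cells overexpressing human PD-1 (8×10^3 per well, DMEM with 10% FCS) were preincubated with compound for 2 hours at 37° C. PE-labeled human PD-L1-Ig was then added at 20 nM final. Binding was quantified by high-content imaging.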

T1 sequence (Q15116 25-288): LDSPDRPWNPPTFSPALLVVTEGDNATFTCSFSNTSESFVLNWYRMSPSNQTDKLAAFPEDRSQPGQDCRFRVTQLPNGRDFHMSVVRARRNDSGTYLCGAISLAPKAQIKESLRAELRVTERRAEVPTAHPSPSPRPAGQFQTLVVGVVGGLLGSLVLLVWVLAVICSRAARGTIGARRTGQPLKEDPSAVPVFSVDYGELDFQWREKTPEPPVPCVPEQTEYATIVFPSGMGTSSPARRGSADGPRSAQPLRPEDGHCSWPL

Compared with `CCCC[C@@H]1NC(=O)[C@H](CC(N)=O)NC(=O)[C@H]2CCCN2C(=O)[C@H](C)N(C)C(=O)[C@H](C(C)C)NC(=O)[C@H](Cc2ccc(-c3ccccc3)cc2)NC(=O)[C@H](CC(C)C)NC(=O)[C@H](Cc2c[nH]c3ccccc23)NC(=O)[C@H](CC(=O)O)NC(=O)[C@H](Cc2ccc(O)cc2)NC(=O)[C@H](Cc2ccccc2)NC(=O)CSC[C@@H](C(=O)N[C@@H](C)C(N)=O)NC(=O)[C@H]([C@@H](C)O)NC(=O)[C@H](C(C)C)NC1=O` [Example 1097] ({CH2CO}-FYDWL[Bip]V[NMeA][dP]N[Nle]VTCA-NH2; thioether N-14), `CC(C)C[C@@H]1NC(=O)[C@H](Cc2c[nH]c3ccccc23)NC(=O)[C@H](CC(=O)O)NC(=O)[C@H](Cc2ccc(O)cc2)NC(=O)[C@H](Cc2ccccc2)NC(=O)CSC[C@@H](C(=O)N[C@@H](C)C(N)=O)NC(=O)[C@H]([C@@H](C)O)NC(=O)[C@H](C(C)C)NC(=O)[C@H](CC(C)C)NC(=O)[C@H](CC(N)=O)NC(=O)[C@H]2CCCN2C(=O)[C@H](C)N(C)C(=O)[C@H](C(C)C)NC(=O)[C@H](Cc2ccc(-c3ccccc3)cc2)NC1=O` [Example 1050] ({CH2CO}-FYDWL[Bip]V[NMeA][dP]NLVTCA-NH2; thioether N-14) is 2.5-fold lower in IC50: 280 nM for the first, 110 nM for the second. The second is the more potent here.

Compound `CC(C)C[C@@H]1NC(=O)[C@H](Cc2c[nH]c3ccccc23)NC(=O)[C@H](CC(=O)O)NC(=O)[C@H](Cc2ccc(O)cc2)NC(=O)[C@H](Cc2ccccc2)NC(=O)CSC[C@@H](C(=O)N[C@@H](CCN)C(N)=O)NC(=O)[C@H](CO)NC(=O)[C@H](C(C)C)NC(=O)[C@H](CC(C)C)NC(=O)[C@H](CC(N)=O)NC(=O)CN(C)C(=O)[C@H](C)N(C)C(=O)[C@H](C(C)C)NC(=O)[C@H](Cc2ccc(-c3ccccc3)cc2)NC1=O` [Example 1103] ({CH2CO}-FYDWL[Bip]V[NMeA][Sar]NLVSC[Dab]-NH2; thioether N-14) has an IC50 of 310 nM.
